Key:
CD8+ T cells = assay: In vitro immunogenicity: priming of CD8+ T cells with aAPCs loaded with peptide/MHC and anti-CD28, multimer staining; type: cell-based, human; settings: for Wells positive [%]: HLA-A*02 restricted peptides, percentage of positive wells (among evaluable); for wells: positive wells
Text: In order to obtain information regarding the immunogenicity of the TUMAPs of the present invention, the inventors performed investigations using an in vitro T-cell priming assay based on repeated stimulations of CD8+ T cells with artificial antigen presenting cells (aAPCs) loaded with peptide/MHC complexes and anti-CD28 antibody.
In order to perform in vitro stimulations by artificial antigen presenting cells loaded with peptide-MHC complex (pMHC) and anti-CD28 antibody, the inventors first isolated CD8+ T cells from fresh HLA-A*02 leukopheresis products via positive selection using CD8 microbeads (Miltenyi Biotec, Bergisch-Gladbach, Germany) of healthy donors obtained from the University clinics Mannheim, Germany, after informed consent.
PBMCs and isolated CD8+ lymphocytes were incubated in T-cell medium (TCM) until use consisting of RPMI-Glutamax (Invitrogen, Karlsruhe, Germany) supplemented with 10% heat inactivated human AB serum (PAN-Biotech, Aidenbach, Germany), 100 U/ml Penicillin/100 μg/ml Streptomycin (Cambrex, Cologne, Germany), 1 mM sodium pyruvate (CC Pro, Oberdorla, Germany), 20 μg/ml Gentamycin (Cambrex). 2.5 ng/ml IL-7 (PromoCell, Heidelberg, Germany) and 10 U/ml IL-2 (Novartis Pharma, Nürnberg, Germany) were also added to the TCM at this step.
Generation of pMHC/anti-CD28 coated beads, T-cell stimulations and readout was performed in a highly defined in vitro system using four different pMHC molecules per stimulation condition and 8 different pMHC molecules per readout condition.
The purified co-stimulatory mouse IgG2a anti human CD28 Ab 9.3 (Jung et al., 1987) was chemically biotinylated using Sulfo-N-hydroxysuccinimidobiotin as recommended by the manufacturer (Perbio, Bonn, Germany). Beads used were 5.6 μm diameter streptavidin coated polystyrene particles (Bangs Laboratories, Illinois, USA).
pMHC used for positive and negative control stimulations were A*0201/MLA-001 (peptide […] (SEQ ID NO. 664) from modified Melan-A/MART-1) and A*0201/DDX5-001 ([…] from DDX5, SEQ ID NO. 665), respectively.
800.000 beads/200 μl were coated in 96-well plates in the presence of 4×12.5 ng different biotin-pMHC, washed and 600 ng biotin anti-CD28 were added subsequently in a volume of 200 μl. Stimulations were initiated in 96-well plates by co-incubating […] CD8+ T cells with 2×10^5 washed coated beads in 200 μl TCM supplemented with 5 ng/ml IL-12 (PromoCell) for 3 days at 37° C. Half of the medium was then exchanged by fresh TCM supplemented with 80 U/ml IL-2 and incubating was continued for 4 days at 37° C. This stimulation cycle was performed for a total of three times. For the pMHC multimer readout using 8 different pMHC molecules per condition, a two-dimensional combinatorial coding approach was used as previously described (Andersen et al., 2012) with minor modifications encompassing coupling to 5 different fluorochromes. Finally, multimeric analyses were performed by staining the cells with Live/dead near IR dye (Invitrogen, Karlsruhe, Germany), CD8-FITC antibody clone SK1 (BD, Heidelberg, Germany) and fluorescent pMHC multimers. For analysis, a BD LSRII SORP cytometer equipped with appropriate lasers and filters was used. Peptide specific cells were calculated as percentage of total CD8+ cells. Evaluation of multimeric analysis was done using the FlowJo software (Tree Star, Oregon, USA). In vitro priming of specific multimer+ CD8+ lymphocytes was detected by comparing to negative control stimulations.
Exemplary flow cytometry results after TUMAP-specific multimer staining for two peptides of the invention are shown in FIG. 3 together with corresponding negative controls.

HLA-A*02:01 = HLA-A*02:01 (Homo sapiens, UniProt P04439, D140Y/D185E/D98H/E176V/E277Q/G131W/G231S/I119V/I121R/I166T/I218V/L300P/L318F/N151K/N90K/P208A/P217A/Q86G/Q94H/R138H/R169H/T345S); assay: MHC binding assay (UV-ligand exchange, ELISA of stabilized MHC complexes); settings: MHC class I binding score; binding to HLA-A*02:01 ranged by peptide exchange yield (UV-ligand exchange, ELISA)
Method in brief: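 Peptide-MHC complexes made by UV-ligand exchange, cleaving a UV-sensitive placeholder peptide and replacing it with the test peptide. Exchange yield measured by ELISA: streptavidin-captured monomers (diluted 100-fold, 1 h, 37 °C) detected with HRP anti-β2m and TMB, absorbance at 450 nm.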

IMPDH2 = target: T1, IMPDH2 (Homo sapiens, UniProt P12268); settings: patients with acute myeloid leukemia and chronic myeloid leukemia in blast crisis; cited from earlier work
T1 construct: host or cells: patients with AML and CML in blast crisis

ovarian cancer = settings: clinical studies; cited from earlier work

T1 sequence (P12268 2-514 limits assumed): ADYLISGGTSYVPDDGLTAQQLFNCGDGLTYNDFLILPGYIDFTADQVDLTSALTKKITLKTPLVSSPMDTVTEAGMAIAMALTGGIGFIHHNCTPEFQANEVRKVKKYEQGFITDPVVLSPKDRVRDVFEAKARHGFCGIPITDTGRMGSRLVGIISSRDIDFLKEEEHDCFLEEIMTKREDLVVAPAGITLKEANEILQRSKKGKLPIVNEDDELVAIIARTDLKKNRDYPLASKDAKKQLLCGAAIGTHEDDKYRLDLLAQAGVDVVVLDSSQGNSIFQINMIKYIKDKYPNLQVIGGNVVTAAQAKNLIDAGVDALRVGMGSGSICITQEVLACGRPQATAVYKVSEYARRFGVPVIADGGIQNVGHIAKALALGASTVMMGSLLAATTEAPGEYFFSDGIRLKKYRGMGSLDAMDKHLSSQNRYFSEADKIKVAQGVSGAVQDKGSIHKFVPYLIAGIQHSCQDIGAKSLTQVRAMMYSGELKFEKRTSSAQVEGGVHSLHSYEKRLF

| Peptide exchange (HLA-A*02:01) | Molecule | Wells positive [%] (CD8+ T cells) | further results |
| --- | --- | --- | --- |
| ″+++″ (≥50% = +++) | 2 (SLLEADPFL; listed as Homo sapiens) [compound 2] | ″+″ (<20% = +) |  |
| ″++++″ (≥75% = ++++) | 3 (SLASKLTTL; listed as Homo sapiens) [compound 3] | ″+″ (<20% = +) |  |
| ″++++″ (≥75% = ++++) | 8 (FTLGNVVGMYL; listed as Homo sapiens) [compound 8] | ″+″ (<20% = +) |  |
| ″+++″ (≥50% = +++) | 11 (KIFEMLEGV; listed as Homo sapiens) [compound 11] | ″+″ (<20% = +) |  |
| ″++″ (≥20% = ++) | 36 (YVLEDLEVTV; listed as Homo sapiens) [compound 36] | ″+″ (<20% = +) |  |
| ″+++″ (≥50% = +++) | 38 (FLLEDDIHVS; listed as Homo sapiens) [compound 38] | ″+″ (<20% = +) |  |
| ″+++″ (≥50% = +++) | 48 (ALAELYEDEV; listed as Homo sapiens) [compound 48] | ″+″ (<20% = +) |  |
| ″++++″ (≥75% = ++++) | 56 (KLYEGIPVLL; listed as Homo sapiens) [compound 56] | ″+″ (<20% = +) |  |
| ″++++″ (≥75% = ++++) | 60 (SLTIDGIYYV; listed as Homo sapiens) [compound 60] | ″++++″ (> = 70% = ++++) |  |
| ″+++″ (≥50% = +++) | 79 (SLFIGEKAVLL; listed as Homo sapiens) [compound 79] | ″+″ (<20% = +) |  |
| ″+++″ (≥50% = +++) | 113 (GLLPTPLFGV; listed as Homo sapiens) [compound 113] | ″+″ (<20% = +) |  |
| ″+++″ (≥50% = +++) | 118 (KLIDNNINV; listed as Homo sapiens) [compound 118] | ″+″ (<20% = +) |  |
| ″++″ (≥20% = ++) | 141 (YLDFSNNRL; listed as Homo sapiens) [compound 141] | ″+″ (<20% = +) |  |
| ″++++″ (≥75% = ++++) | 143 (LLLDITPEI; listed as Homo sapiens) [compound 143] | ″+″ (<20% = +) |  |
| ″+++″ (≥50% = +++) | 150 (RLWEEGEELEL; listed as Homo sapiens) [compound 150] | ″+″ (<20% = +) |  |
| ″+++″ (≥50% = +++) | 166 (YLNHLEPPV; listed as Homo sapiens) [compound 166] | ″++++″ (> = 70% = ++++) |  |
| ″+++″ (≥50% = +++) | 199 (ALQDVPLSSV; listed as Homo sapiens) [compound 199] | ″+″ (<20% = +) |  |
| ″+++″ (≥50% = +++) | 247 (VLLPNDLLEKV; listed as Homo sapiens) [compound 247] | ″+″ (<20% = +) |  |
| ″+++″ (≥50% = +++) | 283 (ALYIGDGYVIHLA; listed as Homo sapiens) [compound 283] |  | wells (CD8+ T cells; HLA class I peptides): + (<20% = +) |
| ″++″ (≥20% = ++) | 319 (SLEPQIQPV; listed as Homo sapiens) [compound 319] | ″+″ (<20% = +) |  |
| ″+++″ (≥50% = +++) | 384 (ILFANPNIFV; listed as Homo sapiens) [compound 384] | ″+″ (<20% = +) |  |
| ″+++″ (≥50% = +++) | 443 (GLWEIENNPTV; listed as Homo sapiens) [compound 443] | ″+″ (<20% = +) |  |

| Peptide exchange (HLA-A*02:01) | Molecule | Wells positive [%] (CD8+ T cells) | further results |
| --- | --- | --- | --- |
| ″++++″ (≥75% = ++++) | 460 (AMLEKNYKL; listed as Homo sapiens) [compound 460] | ″+″ (<20% = +) |  |
| ″+++″ (≥50% = +++) | 489 (KMWEELPEVV; listed as Homo sapiens) [compound 489] | ″+″ (<20% = +) |  |
| ″++″ (≥20% = ++) | 499 (KIFDIDEAEEGV; listed as Homo sapiens) [compound 499] | ″+″ (<20% = +) |  |
| ″++″ (≥20% = ++) | 511 (FLDPYCSASV; listed as Homo sapiens) [compound 511] | ″+″ (<20% = +) |  |
| ″++″ (≥20% = ++) | 603 (FLIEPEHVNTV; listed as Homo sapiens) [compound 603] | ″+″ (<20% = +) |  |
| ″++++″ (≥75% = ++++) | 620 (KLLNKIYEA; listed as Homo sapiens) [compound 620] |  |  |
| ″++++″ (≥75% = ++++) | 621 (VLMDRLPSLL; listed as Homo sapiens) [compound 621] |  |  |
| ″+++″ (≥50% = +++) | 622 (RLLGEEVVRVLQA; listed as Homo sapiens) [compound 622] |  |  |
| ″+++″ (≥50% = +++) | 623 (YLVEDIQHI; listed as Homo sapiens) [compound 623] |  |  |
| ″+++″ (≥50% = +++) | 635 (SLDSTLHAV; listed as Homo sapiens) [compound 635] |  |  |
|  | 652 (TLWYRAPEV; listed as Homo sapiens) [compound 652] |  | donors (CD8+ T cells; HLA class I peptides, positive donors): ++++ (> = 70% = ++++) |
|  | 659 (ILFPDIIARA; listed as Homo sapiens) [compound 659] |  | wells (CD8+ T cells; HLA class I peptides): + (<20% = +) |
|  | 662 (KIQEILTQV; listed as Homo sapiens) [compound 662] |  | wells (CD8+ T cells; HLA class I peptides): + (<20% = +) |
|  | 663 (KIQEMQHFL; listed as Homo sapiens) [compound 663] |  | wells (CD8+ T cells; HLA class I peptides): + (<20% = +) |
|  | NC(=O)c1cccc([C@@H]2O[C@H](CO)[C@@H](O)[C@H]2O)c1 [benzamide riboside] |  | clinical response (IMPDH2): good clinical response |
|  | NC(=O)c1csc([C@@H]2O[C@H](CO)[C@@H](O)[C@H]2O)n1 [tiazofurin] |  | clinical response (IMPDH2): good clinical response |
|  | MORAb-003: anti-folate receptor alpha antibody |  | clinical results in ovarian cancer patients (ovarian cancer): only conferred limited clinical benefit to ovarian cancer patients |
|  | bevacizumab |  | clinical results in ovarian cancer patients (ovarian cancer): appears to be advantageous |
|  | catumaxomab |  | clinical results in ovarian cancer patients (ovarian cancer): promising results in phase II and III studies |
|  | ipilimumab |  | clinical results in ovarian cancer patients (ovarian cancer): significant anti-tumor effects in ovarian cancer patients |
|  | oregovomab |  | clinical results in ovarian cancer patients (ovarian cancer): promising results in phase II and III studies |

Source: patent US10472401B2, “Peptides and combination of peptides for use in immunotherapy against ovarian cancer and other cancers” (immatics biotechnologies GmbH, priority 2015, dated 2019)
